Data as given in patent US20220402867A1, “SULFO-SUBSTITUTED BIARYL COMPOUND OR SALT THEREOF, PREPARATION METHOD THEREFOR, AND USE THEREOF” (Shanghai Litedd Co., Ltd., priority 2019, published 2022).
Like-named read-outs stand apart in the source and are kept apart here.

What was measured:
[1] = Pharmacokinetic (PK) assay in mice; assay type: in vivo; settings: CD-1 mice; for AUC(0-t) / Cmax / half-life / Vd / bioavailability: mouse, plasma; for Vd: values marked *, read-out: Vss; for bioavailability: Po 5 mg/kg vs IV 1 mg/kg
Method: The PK of each compound was determined as follows: 6 CD-1 mice (obtained from Shanghai Lingchang Biotechnology Co., Ltd.) were divided into two groups, 3 mice in each group. One group was administered intravenously at a dose of 1 mg/kg, and the vehicle was 5% DMSO/40% PEG400/55% (20% 3-CD); one group was administered by oral gavage at a dose of 5 mg/kg, and the vehicle was DMSO/1% methylcellulose (1:99). Blood samples were collected from saphenous vein of lower leg in each group at 0, 0.083, 0.25, 0.5, 1, 2, 4, 6, 8 and 24 h after administration. Approximately 40 μL of the blood samples were collected into anticoagulant tubes containing EDTA-K2. Immediately after collection, the tubes were inverted at least 5 times to ensure uniform mixing, and then placed on ice. The blood samples collected at each time point were centrifuged at 4° C., 8000 rpm for 5 minutes to obtain plasma. Another 1.5 mL centrifuge tube was marked with the compound name, animal number, and time point, and the plasma was transferred to this tube. The plasma was stored at −80° C. until analysis.
Compound concentrations in plasma were determined by UPLC-MS/MS method, and the pharmacokinetic parameters were calculated by Phoenix WinNolin 6.4 pharmacokinetic software on the obtained data.

human PBMC (Th17 cells) = assay: Th17 differentiation and IL-17 secretion in human PBMC; assay type: cell-based; settings: IL-17 ELISA after 48 hours; for Emax: maximum activation rate
Method: Test procedure: PBMC cells were first thawed and plated, and then stimulated with stimulating factors (anti-hCD28: 5 μg/mL; rhTGF-β1: 5 ng/mL; rhIL-6: 20 ng/mL; rhIL-23: 10 ng/Ml) to differentiate to Th17, while adding different concentrations of compounds. All test compounds were serially diluted at 3-fold dilution with DMSO, with 8 serial dilutions starting from the maximum concentration 3 μM. The supermatants were collected after 48 hours for IL-17 ELISA detection, and compared with the solvent group, to determine the activation rate of the compounds on Th17 cells to secrete IL-17. EC50 values were fitted with Graphad8.0, and the TOP values fitted by the software was Emax %.

[2] = Metabolic stability in human liver microsomes; assay type: in vitro ADME; settings: for microsomal CLint: 0.5 mg protein/mL
From the text: (§1) According to standard methods of in vitro metabolic stability studies in the art, eg., the methods described in Kerns, Edward H. and Di Li (2008). Drug-like Properties: Concepts, Structure Design and Methods: from ADME to Toxicity Optimization. San Diego: Academic Press; Di, Li et al., Optimization of a Higher Throughput Microsomal Stability Screening Assay for Profiling Drug Discovery Candidates, J. Biomol. Screen. 2003, The method described in 8(4), 453, the liver microsomal metabolic stability test of the compounds of the present disclosure was carried out analogously as follows.
(§2) The incubation system contained 0.5 mg protein/mL microsomes, cofactors, and PBS, was pre-incubated at 37° C. for 3 min, and then added the substrate (i.e., the test compounds) to initiate the reaction. Samples were taken at 0, 1, 5, 10, 15, 20, 30 and 60 min from the start of the reaction, and an appropriate terminator was added to terminate the reaction.
(§3) The terminator was an ice acetonitrile solution containing 100 ng/mL tolbutamide and 100 ng/mL labetalol.
(§4) Sample treatment (n=3): each appropriate sample was added, vortexed and centrifuged at high speed. The supernatants were collected, and the substrate was detected by HPLC-MS/MS. The peak area at the 0 min was taken as 100%. The peak areas at other time points were converted to percentage of the remaining amount. The natural logarithms of the percentage of remaining amount at each time point was plotted against the incubation time, and the slope (−k) was calculated by linear regression. Then, Clint (uL/min/mg) and half-life (T½, min) of the compounds were calculated following the equation of the inherent clearance rate (Clint)=(k* volume of incubation solution)/mass of liver microsomes.

[3] = Metabolic stability in mouse liver microsomes; assay type: in vitro ADME, CD-1 mice; settings: for half-life: CD-1; for microsomal CLint: CD-1, 0.5 mg protein/mL
From the text: as §1, §2, §3, §4

[4] = target: T1, RORγt (RORγ-LBD chimeric receptor) (Homo sapiens, UniProt P51449); assay: Luciferase reporter gene assay of RORγt agonistic activity in HEK293T cells; assay type: cell-based; design: Emax: dose or concentration left out as unconfirmed; settings: for Emax: HEK-293T
T1 construct: host or cells: HEK293T
T1 sequence (P51449 269-508 limits assumed): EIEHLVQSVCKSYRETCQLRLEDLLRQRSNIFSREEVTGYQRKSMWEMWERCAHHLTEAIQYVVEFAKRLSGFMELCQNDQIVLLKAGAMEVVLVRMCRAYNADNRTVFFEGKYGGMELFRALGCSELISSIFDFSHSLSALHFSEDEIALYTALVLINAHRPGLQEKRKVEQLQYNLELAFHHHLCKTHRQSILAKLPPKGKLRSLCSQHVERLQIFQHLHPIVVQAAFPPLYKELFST
From the text: This assay was basically carried out according to the method described in the literature ONCOIMMUNOLOGY, 2016, VOL. 5, NO. 12, e1254854.
The RORγ-LBD coding sequence was inserted into pBIND plasmid (Promega, E1581). This expression vector and a reporter vector (pGL4.35 carrying a stably integrated luciferase reporter gene driven by GAL4 promoter) were co-expressed in HEK293T host cells. When the agonist binds to the corresponding chimeric receptor, the chimeric receptor binds to the GAL4 binding site on the reporter gene carrier and stimulates reporter gene expression. The agonistic activity of the compound on RORγ was determined according to the intensity of the chemiluminescence signal.
1.1 All test compounds were serially diluted at 3-fold dilution with DMSO, with 10 serial dilutions starting from 10 mM; LIT-00093 solution was prepared similarly. […] 1.4 The compound plate was sealed and shaken for 5 min.
Cells were cultured according to ATCC standard operation, and 6*10^6 HEK293T cells were seeded into 100 mm cell culture dishes, cultured overnight in a 37° C., 5% CO2 incubator, and then transfected. Compounds of corresponding concentrations were added for treatment, and the Steady-Glo™ kit (Lot E 2520) was used for further detection.
Chemiluminescence values were detected with Envision 2104; EC50 values were calculated.
% Activity was calculated with the following equation: […]
RLU: […] R L Upositive: average value of positive control R L Uvehicle: average value of negative control
The log values of the compound concentration and % Activity were fitted using Graphad 8.0, to calculate EC50s of the compounds.

GST-RORγ LBD (263-509) = target: T2, GST-RORγ LBD (263-509) (Homo sapiens, UniProt P51449); assay: TR-FRET assay of agonistic activity on RORγ receptor; assay type: biochemical
T2 construct: GST-RORγ LBD ((263-509) (produced at ChemPartner))
T2 sequence (P51449 263-509): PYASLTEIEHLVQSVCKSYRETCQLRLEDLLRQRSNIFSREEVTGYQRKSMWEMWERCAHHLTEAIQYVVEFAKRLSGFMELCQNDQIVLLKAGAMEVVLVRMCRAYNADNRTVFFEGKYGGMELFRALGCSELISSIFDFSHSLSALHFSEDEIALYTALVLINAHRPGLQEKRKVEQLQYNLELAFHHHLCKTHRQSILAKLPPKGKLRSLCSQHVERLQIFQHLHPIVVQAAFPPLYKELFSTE
Method: A time-resolved fluorescence resonance energy transfer (TR-FRET) assay was used for the compounds of the present disclosure, to determine the agonistic activity of the compounds on the RORγ protein receptor. The agonistic activity is expressed by the concentration for 50% of maximal effect (EC50). The experiment was performed basically with reference to the methods described in ONCOIMMUNOLOGY, 2016, VOL. 5, NO. 12, e1254854.
1. Preparation of RORγ Basal Buffer
A 100 mL basal buffer was prepared, mixed homogeneously and stored for use;
The compounds of the examples shown in the table below were prepared into solutions with DMSO as the solvent, serially diluted at 3-fold dilution to 10 concentrations starting from 10 mM, and added to the corresponding wells of a 384-well plate with each concentration of each compound in duplicate;
a. A 75 nM solution of GST-RORγ LBD ((263-509) (produced at ChemPartner)) and a 4 nM solution of Biotin-SRC1 (Glsbiochem) were prepared with the above basal buffer. The two solutions were 1:1 mixed evenly, and 10 μL of the mixed solution was added into each well of the above 384-well plate. The plate was immediately centrifugated at 1000 rpm for 10 seconds; b. A 1 nM solution of Anti-GST Eu (Cisbio, #61GSTKLA) and a 50 nM solution of SA-APC (Cisbio, […]) were prepared with the above basal buffer. The two solutions were 1:1 mixed evenly, and 10 μL of the mixed solution was added into each well of the above 384-well plate. The plate was immediately centrifugated at 1000 rpm for 10 seconds; c. The resulting 384-well plate was incubated at room temperature for 15 minutes. Data were read on an Envision microplate reader, EC50 values and E max % were calculated.
a. Readings were taken at 665 nm and 615 nm wavelengths respectively on the Envision Microplate Reader, and the ratios between them were normalized. b. Calculation was carried out with the following equation: […]
wherein X is the reading of compounds, Min is the reading of the blank solution, and Max is the reading of 10 μM SRC. c. The concentration-response curve data were fitted by a four-parameter logistic nonlinear regression model, and Emax was the TOP value of the fitted curve.

[5] = HEK293T, GAL4 luciferase reporter, read-out: EC50

SMILES | AUC(0-t) ([1]; IV 1 mg/kg) [ng·h/mL] | Cmax ([1]; IV 1 mg/kg) [ng/mL] | half-life ([1]; IV 1 mg/kg) [min] | Vd ([1]; IV 1 mg/kg) [L/kg] | bioavailability [1] [%] | AUC(0-t) ([1]; Po 5 mg/kg) [ng·h/mL] | Cmax ([1]; Po 5 mg/kg) [ng/mL] | half-life ([1]; Po 5 mg/kg) [min] | half-life [2] [min] | microsomal CLint [2] [µL/min/mg] | % Remaining (T = 60 min) [2] [%] | % Remaining (T = 60 min) [3] [%] | half-life [3] [min] | microsomal CLint [3] [µL/min/mg] | EC50 [4, 5] [nM] | Emax [4] [%] | EC50 (human PBMC (Th17 cells)) [nM] | Emax (human PBMC (Th17 cells)) [%] | other results
CS(=O)(=O)c1ccc(-c2c(Cl)cc(NC(=O)Cc3ccc(S(=O)(=O)CC4CC4)cc3)cc2Cl)cc1 [Example 17, 2-(4-((Cyclopropylmethyl)sulfonyl)phenyl)-N-(2,6-dichloro-4′-(methylsulfonyl)-[1,1′-biphenyl]-4-yl)acetamide] | – | – | – | – | – | – | – | – | 3.3 | 415 | 0 | 15.30 | 22.6 | 61.2 | – | 33.9 | 113 | 295 | EC50 [4]: 25 nM
COCC(C(=O)Nc1cc(Cl)c(-c2ccc(S(C)(=O)=O)cc2)c(Cl)c1)c1ccc(S(=O)(=O)CC2CC2)cc1 (stereo not shown) [Example 18, 2-(4-((Cyclopropylmethyl)sulfonyl)phenyl)-N-(2,6-dichloro-4′-(methylsulfonyl)-[1,1′-biphenyl]-4-yl)-3-methoxypropionamide] | – | – | – | – | – | – | – | – | 11.5 | 121 | 2 | 15.10 | 24.1 | 57.6 | 784 | 137 | 29.4 | 193 | –

Further lines, with some results ahead:

AUC(0-t) ([1]; IV 1 mg/kg) [ng·h/mL] | Cmax ([1]; IV 1 mg/kg) [ng/mL] | half-life ([1]; IV 1 mg/kg) [min] | Vd ([1]; IV 1 mg/kg) [L/kg] | bioavailability [1] [%] | AUC(0-t) ([1]; Po 5 mg/kg) [ng·h/mL] | Cmax ([1]; Po 5 mg/kg) [ng/mL] | half-life ([1]; Po 5 mg/kg) [min] | half-life [2] [min] | microsomal CLint [2] [µL/min/mg] | % Remaining (T = 60 min) [2] [%] | % Remaining (T = 60 min) [3] [%] | half-life [3] [min] | microsomal CLint [3] [µL/min/mg] | EC50 [4, 5] [nM] | Emax [4] [%] | SMILES | EC50 (human PBMC (Th17 cells)) [nM] | Emax (human PBMC (Th17 cells)) [%] | other results
2300 | 1440 | 73.8 | 0.71 | 40 | 4240 | 1060 | 139 | 77.9 | 17.8 | 58.7 | 82.60 | > 145 | < 9.6 | 202 | 79.5 | CCS(=O)(=O)c1ccc(C(COC)C(=O)Nc2cc(Cl)c(-c3ccc(S(C)(=O)=O)cc3)c(Cl)c2)cc1 (stereo not shown) [Example 15, N-(2,6-Dichloro-4′-(methylsulfonyl)-[1,1′-biphenyl]-4-yl)-2-(4-(ethylsulfonyl)phenyl)-3-methoxypropionamide] | 45.1 | 197 | –
3630 | 716 | 251 | 1.45 | 30.9 | 5630 | 611 | 230 | > 145 | < 9.6 | 79.6 | 56 | 80.1 | 17.3 | 72 | 51.2 | CCS(=O)(=O)c1ccc(CC(=O)Nc2cc(Cl)c(-c3ccc(S(=O)(=O)C4CC4)cc3)c(Cl)c2)nc1 [Example 21, N-(2,6-Dichloro-4′-(cyclopropylsulfonyl)-1,1′-biphenyl-4-yl)-2-(5-(ethylsulfonyl)pyridin-2-yl)acetamide] | 183 | 297 | CL_obs ([1]; IV 1 mg/kg, values marked **): 4.55** mL/min/kg
– | – | – | – | – | – | – | – | > 145 | < 9.6 | 80.1 | 88.20 | > 145 | < 9.6 | 41 | 39.4 | CS(=O)(=O)c1ccc(CC(=O)Nc2cc(Cl)c(-c3ccc(S(C)(=O)=O)cc3)c(Cl)c2)cc1 [Example 7, N-(2,6-Dichloro-4′-(methylsulfonyl)-[1,1′-biphenyl]-4-yl)-2-(4-(methylsulfonyl)phenyl)acetamide] | – | – | EC50 (GST-RORγ LBD (263-509); TR-FRET, GST-RORγ LBD with Biotin-SRC1): 10 nM; Emax (GST-RORγ LBD (263-509); maximum activation rate, TOP of fitted curve): 169%
